One series in a line: in vitro. The following applies: both, human.
The nature of series [1]: Thermal and chemical stability. Type of series: physicochemical. From the text: We also examined the thermal and chemical stability of the synthesized 2-oxabicyclo[2.2.2]octanes. As representative examples, we selected three molecules: isomeric acids 47, 54, and amine 52. All 2-oxabicyclo[2.2.2]octanes were crystalline solids that were stable in air. We stored them in stock at room temperature in closed vials and observed no changes according to ^1H NMR after one year. […] Treatment of the selected 2-oxabicyclo[2.2.2]octanes with aq. 1 M HCl, or aq.

For series [2], the system named is human hepatocellular carcinoma cells HepG2. Nature of the series: High Content Imaging of HepG2 cells: nuclei count, necrosis (PI), apoptosis (caspase 3/7). The format is cell-based. Set-up: Nuclei Area wv1 / Mean nuclei area: unit not given here. The following applies: for Mean nuclei area / Mean nuclei intensity / % of early apoptotic cells (PI negative, caspase positive) / % of necrotic and late apoptotic cells (PI positive) / All Targets.PI negative.casp positive (%) / All Targets.PI positive (%) / Nuclei Area wv1 / Nuclei Count wv1 / Nuclei Intensity wv1 / % of necrotic and late apoptotic cells (PI positive); cell toxicity level / inhibition of cell proliferation (in words) / cytotoxic effects (in words) / effect on cell proliferation (in words): HepG2, 48 h; for Mean nuclei intensity: Hoechst 33342; for % of early apoptotic cells (PI negative, caspase positive) / % of necrotic and late apoptotic cells (PI positive) / % of necrotic and late apoptotic cells (PI positive); cell toxicity level: mean of 3 wells; for All Targets.PI negative.casp positive (%) / All Targets.PI positive (%) / Nuclei Area wv1 / Nuclei Intensity wv1: single well; for Nuclei Count wv1: single well (concentration from plate map the 5th table); for inhibition of cell proliferation (in words): 50 μM, nuclei count; for effect on HepG2 cell death / apoptosis compared with Vorinostat (in words): HepG2, 48 h, 1, 5 and 50 μM; for cytotoxic effects (in words) / effect on cell proliferation (in words): 1 and 5 μM. As to the method: proliferation and cell death mechanisms, using High Content Imaging assay. The following parameters were assessed: nuclei count to measure inhibiting of the proliferation; cell membrane permeability to assess general cytotoxicity and necrosis; caspase activation to test apoptosis. […]
Human hepatocellular carcinoma HepG2 cell line was used to test biological action of Vorinostat and its analogues. Cell line was obtained from Leibniz Institute DSMZ - German Collection of Microorganisms and Cell Cultures. Cells were cultured in DMEM medium (Hyclone, Cat# SH30003.04) supplemented with 10% fetal bovine serum (Sigma-Aldrich, Cat# F7524), 100 units/mL penicillin and 100 μg/mL streptomycin (Sigma-Aldrich, Cat# P4333).
Before plating, the cells were first washed with PBS and then trypsinized with 0.01% trypsin solution (Sigma-Aldrich, Cat# T4174) in DPBS. The appropriate volume of culture medium was placed in a flask to stop further trypsinization, then the cells were centrifugated at 200 x g for 4 min, resuspended in fresh complete medium and counted using a counting chamber after being stained with Trypan Blue. […]
μL total volume per well and incubated at 37 °C/5%CO2/95%RH overnight. Vorinostat and test compounds were dissolved in 100% DMSO at a concentration of 10 mM and stored at -20 °C as single-use aliquots. Next day 20 μL of medium with compounds was added to the cells to the final DMSO concentration […]. Treatment for 48 hours was performed under growth conditions.
Compounds were assessed at the final concentrations 1, 5 and 50 μM (each in triplicates - 3 wells, 9 fields of view per well). Staining for nuclei, apoptotic cells with activated caspase 3/7 and dead […]
cells with permeabilized membrane was performed for 30 min under growth conditions in staining […]
3/7 Detection Reagent (Invitrogen, Cat# C10423) and 1 μM Propidium Iodide (Invitrogen, Cat# P3566) in medium complete. The cells were imaged with InCell Analyzer 6500, 20x obj. Image […]
Data were analyzed in GraphPad Prism 9.
Supplementary Fig. 16. Workflow of multiplexed cells staining.
Multiplexed staining allows to test cell toxicity and distinguish between necrosis and apoptosis within one single experiment (Supplementary Fig. 16).
CellEvent Caspase-3/7 Green Detection Reagent labels cells with activated caspases. Propidium Iodide (PI) labels dead cells with permeabilized membrane. Hoechst-positive cells were counted to assess the % of cell toxicity. PI-positive cells are dead – this is a fraction of necrotic and late apoptotic cells, used for assessing of cytotoxicity/necrosis. Early apoptotic cells are caspase-positive, PI-negative because their membrane isn’t compromised yet. Percentages of cells of certain […]
background and comparing with overall number of cells.

Where [3] appears, read: microsomes, pH 7.4, % Remaining, Mean of 2.

The half-life is the time needed for the level to fall by half in the phase considered.

Where “and” joins values, the source holds several entries; their conditions need not be identical. Equal values may be shown once. Entries after “also recorded” stand apart in the source; their conditions may differ. Where a name gives a salt, the structure may show the parent alone.

Regarding `CC(C)NCC(O)COc1cccc2ccccc12` (racemic) [Propranolol, (+,-) Propranolol hydrochloride], in “in vitro” (setting [3]), the share remaining at 40 min, 2 µM is 66%. The compound further came in with a half-life at 2 µM in “in vitro” (microsomes, pH 7.4, t1/2: half-time of a metabolic decomposition) of 1.02 h. This compound had a k el at 2 µM in “in vitro” (pH 7.4, kel (elimination constant)) of 0.000183 s⁻¹.

For the compound `CC12CCC(CN)(CC1)OC2` [Compound 52], the “chemical stability in acid” value in series [1] (aq. 1 M HCl, room temperature, 1 h) is “no decomposition”. For the same compound, in series [1] (aq. 1 M NaOH, room temperature, 1 h), the “chemical stability in base” value is listed as “no decomposition”. The thermal stability entry in series [1] (heating at 100 °C for five minutes) was “remained stable”. The stability on storage result in series [1] (in air, room temperature, closed vials, one year, 1H NMR) was “no changes”.

Turning to `O=C(CCCCCCC(=O)NC12CCC(CC1)CC2)NO` [Compound 89], in series [2] (1 uM), the Mean nuclei area turned out to be 117.0; the Mean nuclei intensity came out at 3374.0 RFU; the “% of early apoptotic cells (PI negative, caspase positive)” value (shortened to “% of early apoptotic cells”) stood at 0.444%; the “% of necrotic and late apoptotic cells (PI positive)” value was determined as 0.6%. For the same compound, in series [2] (1 uM), the “All Targets.PI negative.casp positive (%)” value was 0.4175% and 0.3796% and 0.5358%; the “All Targets.PI positive (%)” value is 0.5526% and 0.5457% and 0.7144%; the “Nuclei Area wv1” value is 115.697 and 116.603 and 118.647; the “Nuclei Count wv1” value was 8143 and 8429 and 8399. For the same compound, in series [2] (5 uM), the Mean nuclei area was 120.9; the Mean nuclei intensity is reported as 4138.0 RFU; the “% of early apoptotic cells” value was found to be 0.563%; the “% of necrotic and late apoptotic cells (PI positive)” value is on record as 0.9%. In series [2] (5 uM), the “All Targets.PI negative.casp positive (%)” value was 0.4763% and 0.5673% and 0.6459%; the “All Targets.PI positive (%)” value is 0.9922% and 0.9996% and 0.6321%; the “Nuclei Area wv1” value is 120.224 and 120.771 and 121.802; the “Nuclei Intensity wv1” value is 4041.68 and 3853.68 and 4517.41. Besides, in series [2] (5 uM), the “Nuclei Count wv1” value was 7559 and 7403 and 7277. Further, in series [2] (50 uM), the Mean nuclei area is 115.2; the Mean nuclei intensity worked out at 2088.0 RFU; the “% of early apoptotic cells” value is 9.5%; the “% of necrotic and late apoptotic cells (PI positive); cell toxicity level” value was 67% and 67.1%. Besides, in series [2] (50 uM), the “All Targets.PI negative.casp positive (%)” value is 10.5117% and 9.102% and 8.933%; the “All Targets.PI positive (%)” value is 65.2916% and 67.7168% and 68.1969%; the “Nuclei Area wv1” value was 113.454 and 115.571 and 116.43; the “Nuclei Intensity wv1” value is 1984.47 and 1672.21 and 2607.1. Further, the “Nuclei Count wv1” value in series [2] (50 uM) was 2521 and 2571 and 2418. In series [2], the “inhibition of cell proliferation (in words)” value was “inhibited cell proliferation at 50 μM concentration to the same level as Vorinostat”, the “effect on HepG2 cell death / apoptosis compared with Vorinostat (in words)” value is on record as “activity profile was the closest to Vorinostat; also recorded: active”, the “cytotoxic effects (in words)” value is “did not demonstrate any significant cytotoxic effects” and the “effect on cell proliferation (in words)” value is reported as “did not have any significant effects”.

In the case of `O=C(CCCCCCC(=O)Nc1ccccc1)NO` [Vorinostat, reference compound], in series [2] (1 uM), the Mean nuclei area amounted to 133.3; the Mean nuclei intensity turned out to be 3539.0 RFU; the “% of early apoptotic cells” value turned out to be 1.4%; the “% of necrotic and late apoptotic cells (PI positive)” value came to 2.0%. Also, in series [2] (1 uM), the “All Targets.PI negative.casp positive (%)” value is 1.09% and 1.685% and 1.464%; the “All Targets.PI positive (%)” value was 1.46% and 2.372% and 2.236%; the “Nuclei Area wv1” value is 132.596 and 129.806 and 137.55; the “Nuclei Intensity wv1” value is 3323.23 and 3018.81 and 4275.36. Moreover, in series [2] (1 uM), the “Nuclei Count wv1” value is 5137 and 4806 and 4919. In series [2] (5 uM), the Mean nuclei area turned out to be 133.4; the Mean nuclei intensity is on record as 4444.0 RFU; the “% of early apoptotic cells” value was determined as 7.2%; the “% of necrotic and late apoptotic cells (PI positive)” value turned out to be 10.4%. In series [2] (5 uM), the “All Targets.PI negative.casp positive (%)” value is 8.109% and 5.087% and 8.342%; the “All Targets.PI positive (%)” value was 11.8095% and 7.619% and 11.7647%; the “Nuclei Area wv1” value was 135.125 and 131.698 and 133.281; the “Nuclei Intensity wv1” value was 4725.81 and 3784.72 and 4822.36. Besides, the “Nuclei Count wv1” value in series [2] (5 uM) was 3675 and 4187 and 3740. For the same compound, in series [2] (50 uM), the Mean nuclei area is 122.1; the Mean nuclei intensity worked out at 1952.0 RFU; the “% of early apoptotic cells” value is 12.2%; the “% of necrotic and late apoptotic cells (PI positive); cell toxicity level” value is 77% and 77.5%. For the same compound, in series [2] (50 uM), the “All Targets.PI negative.casp positive (%)” value is 12.2839% and 13.7268% and 10.5715%; the “All Targets.PI positive (%)” value is 77.0504% and 75.6692% and 79.9029%; the “Nuclei Area wv1” value is 120.16 and 121.222 and 124.941; the “Nuclei Intensity wv1” value was 1713 and 2196.3 and 1947.17. The “Nuclei Count wv1” value in series [2] (50 uM) is 2719 and 2914 and 2677.

On to `Cc1ccc(NC(=O)c2ccc(CN3CCN(C)CC3)cc2)cc1Nc1nccc(-c2cccnc2)n1` [Imatinib], for which the share remaining at 40 min, 2 µM in “in vitro” (microsomes, pH 7.4, % Remaining without cofactor, Mean of 2) amounted to 88%. Also, in “in vitro” (setting [3]), the share remaining at 7 min, 2 µM came to 109%; the share remaining at 0.25 h, 2 µM came out at 93%; the share remaining at 25 min, 2 µM is 82%; the fraction remaining at 40 min, 2 µM came to 66%.

For the compound `O=C(CCCCCCC(=O)NC12CCC(CC1)OC2)NO` [Compound 88], in series [2] (1 uM), the Mean nuclei area is 117.1; the Mean nuclei intensity is recorded as 2764.0 RFU; the “% of early apoptotic cells” value was 0.344%; the “% of necrotic and late apoptotic cells (PI positive)” value is given as 0.9%. In series [2] (1 uM), the “All Targets.PI negative.casp positive (%)” value was 0.2791% and 0.3975% and 0.3542%; the “All Targets.PI positive (%)” value is 1.031% and 0.9564% and 0.6961%; the “Nuclei Area wv1” value is 117.054 and 118.289 and 116.039; the “Nuclei Intensity wv1” value is 2311.93 and 2195.12 and 3784.44. The “Nuclei Count wv1” value in series [2] (1 uM) was 8241 and 8051 and 8188. Also, in series [2] (5 uM), the Mean nuclei area is reported as 118.3; the Mean nuclei intensity is given as 3381.0 RFU; the “% of early apoptotic cells” value was 0.463%; the “% of necrotic and late apoptotic cells (PI positive)” value is given as 0.8%. In series [2] (5 uM), the “All Targets.PI negative.casp positive (%)” value is 0.548% and 0.4031% and 0.4377%; the “All Targets.PI positive (%)” value is 0.8821% and 0.8306% and 0.721%; the “Nuclei Area wv1” value is 119.866 and 117.043 and 117.864; the “Nuclei Intensity wv1” value is 3478.61 and 2783.26 and 3882.1. In addition, in series [2] (5 uM), the “Nuclei Count wv1” value was 7482 and 8187 and 7767. For the same compound, in series [2] (50 uM), the Mean nuclei area stood at 129.6; the Mean nuclei intensity turned out to be 3968.0 RFU; the “% of early apoptotic cells” value is on record as 12.0%; the “% of necrotic and late apoptotic cells (PI positive); cell toxicity level” value is 18% and 18.5%. For the same compound, in series [2] (50 uM), the “All Targets.PI negative.casp positive (%)” value is 11.5569% and 11.4167% and 12.9144%; the “All Targets.PI positive (%)” value is 19.3713% and 17.5096% and 18.5033%; the “Nuclei Area wv1” value is 130.383 and 125.337 and 133.198; the “Nuclei Intensity wv1” value was 4177.18 and 3221.5 and 4506.24. In addition, in series [2] (50 uM), the “Nuclei Count wv1” value is 3340 and 3381 and 3167. For the same compound, in series [2], the “inhibition of cell proliferation (in words)” value is “inhibited cell proliferation at 50 μM concentration to the same level as Vorinostat”, the “effect on HepG2 cell death / apoptosis compared with Vorinostat (in words)” value is “active”, the “cytotoxic effects (in words)” value was “did not demonstrate any significant cytotoxic effects” and the “effect on cell proliferation (in words)” value is “did not have any significant effects”.

The values above are taken from paper PMC10545790.
